Laboratory results published in patent publication US12441703B2, “Carboxamides as modulators of sodium channels” (VERTEX PHARMACEUTICALS INCORPORATED, priority 2019, dated 2025).

molecular target: human NaV 1.8 (Homo sapiens, UniProt Q9Y5Y9); assay: E-VIPR assay for detecting and measuring NaV inhibition properties; format: cell-based; settings: E-VIPR assay conducted in the presence of human serum; HEK cells expressing truncated human NaV 1.8; read-out: IC50
Outline: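 Membrane-potential (coumarin/oxonol) readout after 10 s of 10 Hz biphasic electrical stimulation on E-VIPR. Compounds: 11-point 3-fold dilutions, […], 0.625% DMSO, 30 min at room temperature, human serum optional. Cells: HEK expressing truncated human NaV1.8 co-transduced with KIR2.1.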

Chain of human NaV 1.8 (Q9Y5Y9 whole entry, looked up, the tested form may be a part): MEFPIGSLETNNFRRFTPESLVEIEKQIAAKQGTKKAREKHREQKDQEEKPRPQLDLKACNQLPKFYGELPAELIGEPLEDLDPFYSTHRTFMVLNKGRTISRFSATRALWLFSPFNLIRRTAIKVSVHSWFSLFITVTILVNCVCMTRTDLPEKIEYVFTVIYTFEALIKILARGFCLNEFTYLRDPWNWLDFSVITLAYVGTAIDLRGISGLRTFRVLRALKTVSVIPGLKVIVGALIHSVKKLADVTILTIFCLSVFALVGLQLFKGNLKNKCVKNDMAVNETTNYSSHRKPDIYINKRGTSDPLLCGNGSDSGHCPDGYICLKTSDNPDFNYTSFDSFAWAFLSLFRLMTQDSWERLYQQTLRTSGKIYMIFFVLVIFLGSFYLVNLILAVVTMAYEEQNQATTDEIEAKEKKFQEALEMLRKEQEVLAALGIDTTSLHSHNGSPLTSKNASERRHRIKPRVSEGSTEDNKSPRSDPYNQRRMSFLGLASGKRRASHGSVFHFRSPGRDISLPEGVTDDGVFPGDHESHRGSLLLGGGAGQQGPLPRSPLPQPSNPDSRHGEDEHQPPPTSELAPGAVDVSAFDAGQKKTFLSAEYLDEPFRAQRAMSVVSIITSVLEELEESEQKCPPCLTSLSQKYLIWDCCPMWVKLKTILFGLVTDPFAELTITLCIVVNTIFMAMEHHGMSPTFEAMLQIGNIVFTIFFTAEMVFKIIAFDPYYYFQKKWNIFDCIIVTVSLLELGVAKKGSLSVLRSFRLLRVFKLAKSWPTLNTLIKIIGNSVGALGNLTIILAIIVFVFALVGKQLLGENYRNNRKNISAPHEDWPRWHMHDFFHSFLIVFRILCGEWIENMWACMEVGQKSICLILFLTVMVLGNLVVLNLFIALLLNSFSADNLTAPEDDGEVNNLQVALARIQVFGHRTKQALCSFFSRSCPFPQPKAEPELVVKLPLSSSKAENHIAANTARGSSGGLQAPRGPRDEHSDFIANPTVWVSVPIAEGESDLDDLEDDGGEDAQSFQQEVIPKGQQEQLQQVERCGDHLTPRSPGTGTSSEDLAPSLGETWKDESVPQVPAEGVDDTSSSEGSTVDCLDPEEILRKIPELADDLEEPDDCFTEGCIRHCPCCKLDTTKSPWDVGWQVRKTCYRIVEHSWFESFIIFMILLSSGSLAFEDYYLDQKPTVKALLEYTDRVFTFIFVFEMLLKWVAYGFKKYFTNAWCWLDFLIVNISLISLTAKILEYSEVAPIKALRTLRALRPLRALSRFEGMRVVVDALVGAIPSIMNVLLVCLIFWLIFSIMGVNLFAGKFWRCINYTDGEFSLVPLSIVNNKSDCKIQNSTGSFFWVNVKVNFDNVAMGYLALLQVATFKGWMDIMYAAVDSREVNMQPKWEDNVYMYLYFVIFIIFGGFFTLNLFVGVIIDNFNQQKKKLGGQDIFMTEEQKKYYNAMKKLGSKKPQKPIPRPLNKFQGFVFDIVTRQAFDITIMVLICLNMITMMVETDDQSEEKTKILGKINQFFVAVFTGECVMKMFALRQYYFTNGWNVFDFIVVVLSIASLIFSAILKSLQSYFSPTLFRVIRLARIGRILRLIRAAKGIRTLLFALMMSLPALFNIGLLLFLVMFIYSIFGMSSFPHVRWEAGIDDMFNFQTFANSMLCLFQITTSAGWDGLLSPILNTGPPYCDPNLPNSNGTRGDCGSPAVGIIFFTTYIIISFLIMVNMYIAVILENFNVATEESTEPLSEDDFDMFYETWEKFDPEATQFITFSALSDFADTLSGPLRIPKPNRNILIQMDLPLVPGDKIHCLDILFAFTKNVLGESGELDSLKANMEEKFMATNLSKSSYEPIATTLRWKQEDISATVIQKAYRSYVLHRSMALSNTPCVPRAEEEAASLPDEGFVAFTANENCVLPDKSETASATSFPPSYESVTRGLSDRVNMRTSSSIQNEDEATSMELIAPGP

Row | IC50 | SMILES
1 | 170 nM | Cc1cc(OC(F)(F)F)ccc1Oc1ccc(C(F)(F)F)c(C)c1C(=O)Nc1ccc(C(N)=O)nc1 [Compound 236, 5-[[2-methyl-6-[2-methyl-4-(trifluoromethoxy)phenoxy]-3-(trifluoromethyl)benzoyl]amino]pyridine-2-carboxamide]
2 | 440 nM | [2H]C([2H])([2H])Oc1cc(OC(F)(F)F)ccc1Oc1cc(-c2ccncc2)cc(F)c1C(=O)Nc1ccnc(C(N)=O)c1 [Compound 91, 4-[[2-fluoro-4-(4-pyridyl)-6-[2-(trideuteriomethoxy)-4-(trifluoromethoxy)phenoxy]benzoyl]amino]pyridine-2-carboxamide]
3 | 120 nM | COc1cc(Cl)ccc1Oc1ccc(C(F)(F)F)c(C)c1C(=O)Nc1ccnc(C(N)=O)c1 [Compound 134, 4-[[6-(4-chloro-2-methoxy-phenoxy)-2-methyl-3-(trifluoromethyl)benzoyl]amino]pyridine-2-carboxamide]
4 | 43 nM | COc1cc(Oc2ccc(OC(F)(F)F)cc2Cl)c(C(=O)Nc2ccc(C(N)=O)nc2)c(F)c1C(F)(F)F [Compound 370, 5-[[6-[2-chloro-4-(trifluoromethoxy)phenoxy]-2-fluoro-4-methoxy-3-(trifluoromethyl)benzoyl]amino]pyridine-2-carboxamide]
5 | 9 nM | COc1c(Oc2ccc(C3CC3)c(C)c2C(=O)Nc2ccnc(C(N)=O)c2)ccc(OC(F)(F)F)c1F [Compound 196, 4-[[3-cyclopropyl-6-[3-fluoro-2-methoxy-4-(trifluoromethoxy)phenoxy]-2-methyl-benzoyl]amino]pyridine-2-carboxamide]
6 | 60 nM | COc1cc(OC(F)(F)F)ccc1Oc1cc(C2=CCC(C(C)(C)C)CC2)cc(F)c1C(=O)Nc1ccnc(C(N)=O)c1 (stereo not drawn) [Compound 1016, 4-[[4-(4-tert-butylcyclohexen-1-yl)-2-fluoro-6-[2-methoxy-4-(trifluoromethoxy)phenoxy]benzoyl]amino]pyridine-2-carboxamide]
7 | 100 nM | [2H]C([2H])([2H])Oc1cc(OC(F)(F)F)ccc1Oc1cc(C#CC2CC2)cc(F)c1C(=O)Nc1ccnc(C(N)=O)c1 [Compound 1023]
8 | 2.5 nM | COc1c(Oc2ccc(C3CCC3)c(F)c2C(=O)Nc2ccnc(C(N)=O)c2)ccc(OC(F)(F)F)c1F [Compound 310, 4-[[3-cyclobutyl-2-fluoro-6-[3-fluoro-2-methoxy-4-(trifluoromethoxy)phenoxy]benzoyl]amino]pyridine-2-carboxamide]
9 | > 3000 nM | NC(=O)c1cc(NC(=O)c2ccc(C(F)(F)F)cc2Oc2ccc(F)c3c2OCC3)ccn1 [Compound 165, 4-[[2-[(4-fluoro-2,3-dihydrobenzofuran-7-yl)oxy]-4-(trifluoromethyl)benzoyl]amino]pyridine-2-carboxamide]
10 | 84 nM | COc1cc(OC(F)(F)F)ccc1Oc1cc(Cl)cc(F)c1C(=O)Nc1cc(C(N)=O)[n+]([O-])cc1C [Compound 267, 4-[[4-chloro-2-fluoro-6-[2-methoxy-4-(trifluoromethoxy)phenoxy]benzoyl]amino]-5-methyl-1-oxido-pyridin-1-ium-2-carboxamide]
11 | 1700 nM | NC(=O)c1cc(NC(=O)c2cc(C(F)(F)F)ccc2Oc2ccc(F)c(F)c2)ccn1 [Compound 6, 4-[[2-(3,4-difluorophenoxy)-5-(trifluoromethyl)benzoyl]amino]pyridine-2-carboxamide]
12 | > 3000 nM | NC(=O)c1cc(NC(=O)c2ccc(C(F)(F)F)cc2Oc2ccc(F)c(F)c2)ccn1 [Compound 163, 4-[[2-(3,4-difluorophenoxy)-4-(trifluoromethyl)benzoyl]amino]pyridine-2-carboxamide]
13 | 530 nM | COc1cc(OC(F)(F)F)ccc1Oc1cc(C2CC2)c(C2CC2)nc1C(=O)Nc1ccnc(C(N)=O)c1 [Compound 201, N-(2-carbamoyl-4-pyridyl)-5,6-dicyclopropyl-3-[2-methoxy-4-(trifluoromethoxy)phenoxy]pyridine-2-carboxamide]
14 | 140 nM | CCc1c(C(F)(F)F)ccc(Oc2ccc(OC(F)(F)F)cc2OC)c1C(=O)Nc1ccc(C(N)=O)nc1 [Compound 184]
15 | 120 nM | Cc1cc(OC(F)(F)F)ccc1Oc1ccc(C(F)(F)F)c(F)c1C(=O)Nc1ccc(C(N)=O)nc1 [Compound 222, 5-[[2-fluoro-6-[2-methyl-4-(trifluoromethoxy)phenoxy]-3-(trifluoromethyl)benzoyl]amino]pyridine-2-carboxamide]
16 | 530 nM | COc1cc(Cl)ccc1Oc1ccc(C(F)(F)F)c(F)c1C(=O)Nc1ccc(C(N)=O)nc1 [Compound 220, 5-[[6-(4-chloro-2-methoxy-phenoxy)-2-fluoro-3-(trifluoromethyl)benzoyl]amino]pyridine-2-carboxamide]
17 | 1500 nM | COc1nc(Cl)ccc1Oc1cccc(C(F)(F)F)c1C(=O)Nc1ccnc(C(N)=O)c1 [Compound 73, 4-[[2-[(6-chloro-2-methoxy-3-pyridyl)oxy]-6-(trifluoromethyl)benzoyl]amino]pyridine-2-carboxamide]

Row | IC50 | SMILES
18 | 50 nM | COc1cc(Oc2ccc(F)cc2Cl)c(C(=O)Nc2ccnc(C(N)=O)c2)c(F)c1C(F)(F)F [Compound 365, 4-[[6-(2-chloro-4-fluoro-phenoxy)-2-fluoro-4-methoxy-3-(trifluoromethyl)benzoyl]amino]pyridine-2-carboxamide]
19 | 510 nM | NC(=O)c1cc(NC(=O)c2c(Oc3ccc(OC4CCCCC4)cc3)ccc(C(F)(F)F)c2F)ccn1 [Compound 35, 4-[[6-[4-(cyclohexoxy)phenoxy]-2-fluoro-3-(trifluoromethyl)benzoyl]amino]pyridine-2-carboxamide]
20 | 42 nM | NC(=O)c1cc(NC(=O)c2c(Oc3ccc(F)c(F)c3F)ccc(C(F)(F)F)c2F)ccn1 [Compound 49, 4-[[2-fluoro-3-(trifluoromethyl)-6-(2,3,4-trifluorophenoxy)benzoyl]amino]pyridine-2-carboxamide]
21 | 13 nM | [2H]C([2H])([2H])Oc1cc(OC(F)(F)F)ccc1Oc1cc(-c2ccc(C(F)(F)F)cc2)cc(F)c1C(=O)Nc1ccnc(C(N)=O)c1 [Compound 93, 4-[[2-fluoro-6-[2-(trideuteriomethoxy)-4-(trifluoromethoxy)phenoxy]-4-[4-(trifluoromethyl)phenyl]benzoyl]amino]pyridine-2-carboxamide]
22 | 85 nM | COc1cc(OC(F)(F)F)ccc1Oc1cc(C(F)F)cc(C)c1C(=O)Nc1ccnc(C(N)=O)c1 [Compound 200, 4-[[4-(difluoromethyl)-2-[2-methoxy-4-(trifluoromethoxy)phenoxy]-6-methyl-benzoyl]amino]pyridine-2-carboxamide]
23 | 21 nM | Cc1c(C2CC2)ccc(Oc2ccc(OC(F)(F)F)cc2Cl)c1C(=O)Nc1ccnc(C(N)=O)c1 [Compound 199, 4-[[6-[2-chloro-4-(trifluoromethoxy)phenoxy]-3-cyclopropyl-2-methyl-benzoyl]amino]pyridine-2-carboxamide]
24 | 9 nM | COc1c(Oc2cc(C(F)(F)F)c(OC)c(F)c2C(=O)Nc2cc(C(N)=O)ncc2C)ccc(F)c1F [Compound 376, 4-[[6-(3,4-difluoro-2-methoxy-phenoxy)-2-fluoro-3-methoxy-4-(trifluoromethyl)benzoyl]amino]-5-methyl-pyridine-2-carboxamide]
25 | 190 nM | Cc1cc(OC(F)(F)F)cc(Oc2ccc(OC(F)(F)F)cc2Cl)c1C(=O)Nc1ccnc(C(N)=O)c1 [Compound 241, 4-[[2-[2-chloro-4-(trifluoromethoxy)phenoxy]-6-methyl-4-(trifluoromethoxy)benzoyl]amino]pyridine-2-carboxamide]
26 | 53 nM | Cc1c(C(F)(F)F)ccc(Oc2ccc(OC(F)(F)F)cc2)c1C(=O)Nc1ccnc(C(N)=O)c1 [Compound 123, 4-[[2-methyl-6-[4-(trifluoromethoxy)phenoxy]-3-(trifluoromethyl)benzoyl]amino]pyridine-2-carboxamide]
27 | 9 nM | COc1cc(Oc2ccc(OC(F)(F)F)cc2Cl)c(C(=O)Nc2cnc(C(N)=O)nc2)c(F)c1C(F)(F)F [Compound 369, 5-[[6-[2-chloro-4-(trifluoromethoxy)phenoxy]-2-fluoro-4-methoxy-3-(trifluoromethyl)benzoyl]amino]pyrimidine-2-carboxamide]
28 | 155 nM | Cc1c(C(F)(F)F)ccc(Oc2ccc(F)cc2F)c1C(=O)Nc1ccnc(C(N)=O)c1 [Compound 131, 4-[[6-(2,4-difluorophenoxy)-2-methyl-3-(trifluoromethyl)benzoyl]amino]pyridine-2-carboxamide]
29 | 11 nM | COc1cc(OC(F)(F)F)ccc1Oc1ccc(CC(C)C)c(C)c1C(=O)Nc1ccnc(C(N)=O)c1 [Compound 185, 4-[[3-isobutyl-6-[2-methoxy-4-(trifluoromethoxy)phenoxy]-2-methyl-benzoyl]amino]pyridine-2-carboxamide]
30 | 470 nM | Cc1c(C(F)(F)F)ccc(Oc2ccc(Cl)cc2F)c1C(=O)Nc1ccnc(C(N)=O)c1 [Compound 135, 4-[[6-(4-chloro-2-fluoro-phenoxy)-2-methyl-3-(trifluoromethyl)benzoyl]amino]pyridine-2-carboxamide]
31 | 47 nM | Cc1c(Oc2ccc(C(F)(F)F)c(F)c2C(=O)Nc2ccnc(C(N)=O)c2)ccc(F)c1Cl [Compound 338, 4-[[6-(3-chloro-4-fluoro-2-methyl-phenoxy)-2-fluoro-3-(trifluoromethyl)benzoyl]amino]pyridine-2-carboxamide]
32 | 130 nM | NC(=O)c1ccc(NC(=O)c2c(Oc3ccc(OC(F)(F)F)cc3Cl)ccc(C(F)(F)F)c2F)cn1 [Compound 223, 5-[[6-[2-chloro-4-(trifluoromethoxy)phenoxy]-2-fluoro-3-(trifluoromethyl)benzoyl]amino]pyridine-2-carboxamide]
33 | 440 nM | COc1cc(OC(F)(F)F)ccc1Oc1cc(C(F)(F)F)c(OC)cc1C(=O)Nc1ccnc(C(N)=O)c1 [Compound 276, 4-[[5-Methoxy-2-[2-Methoxy-4-(Trifluoromethoxy)Phenoxy]-4-(Trifluoromethyl)Benzoyl]Amino]Pyridine-2-Carboxamide]
